Source: article PMC3445516 (PLoS ONE, 2012)
Like-named read-outs stand apart in the source and are kept apart here.

How the values were obtained:
Assay in all cases: Ambit kinase profiling, competition binding
[1] = target: T1, GSK3B (Homo sapiens, UniProt P49841)
T1 construct: purchased Ambit Biosciences (KINOMEscan)
Procedure: (§1) Also included in the kinase profile are four isoforms of PKC (δ, ε, η, θ) and eight isoforms of CAMKs (CAMKIα, δ, γ; CAMKIIα, β, δ, γ; CAMK4).
(§2) The global kinase profiling experiment was performed by Ambit Biosciences.

[2] = target: T2, JNK3 (Homo sapiens, UniProt P53779); settings: for % Competition: 10 µM
T2 construct: purchased Ambit Biosciences (KINOMEscan)
T2 sequence (P53779 whole entry): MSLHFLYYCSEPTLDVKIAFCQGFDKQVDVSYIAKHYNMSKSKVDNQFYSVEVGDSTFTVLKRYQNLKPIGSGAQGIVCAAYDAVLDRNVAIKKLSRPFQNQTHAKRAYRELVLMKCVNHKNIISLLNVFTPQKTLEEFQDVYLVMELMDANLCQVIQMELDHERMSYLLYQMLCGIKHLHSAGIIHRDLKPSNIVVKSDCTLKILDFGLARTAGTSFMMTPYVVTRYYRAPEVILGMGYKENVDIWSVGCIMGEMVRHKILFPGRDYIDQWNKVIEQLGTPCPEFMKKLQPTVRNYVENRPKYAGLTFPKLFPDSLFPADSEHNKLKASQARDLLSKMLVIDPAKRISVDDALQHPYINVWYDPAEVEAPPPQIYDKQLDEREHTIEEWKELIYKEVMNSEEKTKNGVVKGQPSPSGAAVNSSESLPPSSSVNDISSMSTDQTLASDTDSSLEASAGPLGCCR
Procedure: as §1, §2

[3] = target: T3, LATS2 (Homo sapiens, UniProt Q9NRM7); settings: for % Competition: 10 µM
T3 construct: purchased Ambit Biosciences (KINOMEscan)
T3 sequence (Q9NRM7 1-1088): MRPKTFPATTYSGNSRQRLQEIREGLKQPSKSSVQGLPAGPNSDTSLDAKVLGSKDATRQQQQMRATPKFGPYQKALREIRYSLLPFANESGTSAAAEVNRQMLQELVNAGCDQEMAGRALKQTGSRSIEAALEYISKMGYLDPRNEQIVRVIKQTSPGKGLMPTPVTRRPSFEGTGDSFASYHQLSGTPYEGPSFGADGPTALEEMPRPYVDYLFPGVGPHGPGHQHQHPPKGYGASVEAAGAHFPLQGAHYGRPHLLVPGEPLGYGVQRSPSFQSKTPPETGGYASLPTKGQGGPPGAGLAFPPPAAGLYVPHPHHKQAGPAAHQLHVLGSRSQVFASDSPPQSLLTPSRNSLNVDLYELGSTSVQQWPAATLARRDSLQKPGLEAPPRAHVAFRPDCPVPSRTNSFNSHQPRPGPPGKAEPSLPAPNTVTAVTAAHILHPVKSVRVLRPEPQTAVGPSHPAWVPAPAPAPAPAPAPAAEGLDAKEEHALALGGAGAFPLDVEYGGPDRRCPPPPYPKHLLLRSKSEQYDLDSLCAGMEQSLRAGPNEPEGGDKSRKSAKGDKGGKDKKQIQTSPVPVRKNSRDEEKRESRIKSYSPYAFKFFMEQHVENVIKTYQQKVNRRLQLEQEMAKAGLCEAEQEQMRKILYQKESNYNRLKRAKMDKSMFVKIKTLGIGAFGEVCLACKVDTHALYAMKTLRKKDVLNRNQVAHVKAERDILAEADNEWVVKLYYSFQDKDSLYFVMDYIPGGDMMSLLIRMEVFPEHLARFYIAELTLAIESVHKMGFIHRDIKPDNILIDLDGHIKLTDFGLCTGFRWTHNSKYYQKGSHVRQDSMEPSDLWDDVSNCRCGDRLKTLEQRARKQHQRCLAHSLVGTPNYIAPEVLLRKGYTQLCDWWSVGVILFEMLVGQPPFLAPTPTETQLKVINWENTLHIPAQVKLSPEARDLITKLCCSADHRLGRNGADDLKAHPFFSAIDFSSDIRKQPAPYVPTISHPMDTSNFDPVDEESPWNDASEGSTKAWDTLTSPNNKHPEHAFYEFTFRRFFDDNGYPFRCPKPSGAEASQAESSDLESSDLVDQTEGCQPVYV
Procedure: as §1, §2

[4] = target: T4, MEK4 (Homo sapiens, UniProt P45985)
T4 construct: purchased Ambit Biosciences (KINOMEscan)
T4 sequence (P45985 1-399): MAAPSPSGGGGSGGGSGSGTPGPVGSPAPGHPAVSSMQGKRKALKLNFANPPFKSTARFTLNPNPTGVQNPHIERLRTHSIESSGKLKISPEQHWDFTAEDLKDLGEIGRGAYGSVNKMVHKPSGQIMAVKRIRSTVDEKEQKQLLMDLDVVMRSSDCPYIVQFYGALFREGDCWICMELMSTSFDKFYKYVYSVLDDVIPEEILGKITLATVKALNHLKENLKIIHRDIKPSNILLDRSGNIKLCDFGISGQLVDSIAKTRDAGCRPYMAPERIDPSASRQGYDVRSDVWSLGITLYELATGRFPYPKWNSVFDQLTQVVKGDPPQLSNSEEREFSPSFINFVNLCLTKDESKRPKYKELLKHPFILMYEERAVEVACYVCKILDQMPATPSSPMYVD
Procedure: as §1, §2

[5] = target: T5, SNARK (Homo sapiens, UniProt Q9H093); settings: for % Competition: 10 µM
T5 construct: purchased Ambit Biosciences (KINOMEscan)
T5 sequence (Q9H093 1-628): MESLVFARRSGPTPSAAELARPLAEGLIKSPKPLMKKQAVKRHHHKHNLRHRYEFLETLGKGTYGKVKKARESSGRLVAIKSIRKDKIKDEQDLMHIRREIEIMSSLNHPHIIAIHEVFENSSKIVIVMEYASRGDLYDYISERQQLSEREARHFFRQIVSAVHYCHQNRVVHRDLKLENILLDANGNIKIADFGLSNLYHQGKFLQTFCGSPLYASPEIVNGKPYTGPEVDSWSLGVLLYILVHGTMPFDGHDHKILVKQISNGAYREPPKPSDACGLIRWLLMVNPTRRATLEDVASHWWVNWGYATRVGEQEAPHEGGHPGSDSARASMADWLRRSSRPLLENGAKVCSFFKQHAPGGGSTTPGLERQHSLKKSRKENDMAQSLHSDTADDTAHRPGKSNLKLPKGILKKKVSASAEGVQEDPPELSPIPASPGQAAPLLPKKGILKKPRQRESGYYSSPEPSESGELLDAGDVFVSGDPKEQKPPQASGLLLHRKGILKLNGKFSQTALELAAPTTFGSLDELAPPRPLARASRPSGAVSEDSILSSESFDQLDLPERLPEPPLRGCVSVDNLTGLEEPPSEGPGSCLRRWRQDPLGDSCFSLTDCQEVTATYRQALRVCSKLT
Procedure: as §1, §2

T1 sequence (P49841 whole entry): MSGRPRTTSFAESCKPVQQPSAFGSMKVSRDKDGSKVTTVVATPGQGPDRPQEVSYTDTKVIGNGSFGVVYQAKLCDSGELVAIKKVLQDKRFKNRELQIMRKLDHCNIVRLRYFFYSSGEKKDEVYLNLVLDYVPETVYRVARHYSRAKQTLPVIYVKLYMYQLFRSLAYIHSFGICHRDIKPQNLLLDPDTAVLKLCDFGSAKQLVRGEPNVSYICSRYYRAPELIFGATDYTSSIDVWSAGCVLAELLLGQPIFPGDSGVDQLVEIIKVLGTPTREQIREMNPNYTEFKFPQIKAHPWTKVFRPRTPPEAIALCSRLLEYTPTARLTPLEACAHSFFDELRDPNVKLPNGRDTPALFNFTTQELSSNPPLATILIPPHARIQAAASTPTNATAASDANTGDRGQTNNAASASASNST

inhibition at 10 µM ([1]; GSK3B, 10 µM, read-out: % Competition) [%]	inhibition at 10 µM ([4]; MEK4, 10 µM, read-out: % Competition) [%]	inhibition at 10 µM ([1]; GSK3B, compound concentration 10 uM, read-out: Percent Competition) [%]	Percent Competition ([2]; compound concentration 10 uM) [%]	Percent Competition ([3]; compound concentration 10 uM) [%]	inhibition at 10 µM ([4]; MEK4, compound concentration 10 uM, read-out: Percent Competition) [%]	Percent Competition ([5]; compound concentration 10 uM) [%]	SMILES	% Competition [2] [%]	% Competition [3] [%]	% Competition [5] [%]	inhibition at 10 µM ([1]; read-out: % Competition) [%]	inhibition at 10 µM ([4]; read-out: % Competition) [%]
96	87						Fc1ccc(-c2c(-c3ccncc3)[nH]c3nccnc23)cc1 [Compound 122]	88	82	89		
							CC(O)CNc1cc(-c2[nH]c3cccnc3c2-c2ccc(F)cc2)ccn1 (stereo not drawn) [Compound 140]	83	<50	<50	< 50	< 50
		96	88	82	87	89	Fc1ccc(-c2c(-c3ccncc3)[nH]c3nccnc23)cc1 [RO1155697-000-005]					
